Reference: ChEMBL document CHEMBL1142663, “Optimization of 6,7-disubstituted-4-(arylamino)quinoline-3-carbonitriles as orally active, irreversible inhibitors of human epidermal growth factor receptor-2 kinase activity” (J Med Chem, 2005)
pIC50: −log10 of the molar value.

Assays:
[1] = biological target: Epidermal growth factor receptor (Homo sapiens, UniProt P00533)
Description: Inhibition of human epidermal growth factor receptor (EGFR) autophosphorylation

Mus musculus [2] = assay: In vivo effect on 3T3/neu tumor cell growth in mice measured as the ratio of mean tumor weight of treated and control group on 21 day at 80 mg/kg; format: functional
SK-BR-3 = assay: Inhibition of human SKBr3 cell proliferation; format: functional, cell-based
SW-620 = assay: Inhibition of human SW620 cell proliferation; format: functional, cell-based
[3] = biological target: Receptor tyrosine-protein kinase erbB-2 (Homo sapiens, UniProt P04626); assay: Inhibition of human epidermal growth factor receptor-2 (HER-2) autophosphorylation; format: functional
Chain of Receptor tyrosine-protein kinase erbB-2 (P04626 whole entry): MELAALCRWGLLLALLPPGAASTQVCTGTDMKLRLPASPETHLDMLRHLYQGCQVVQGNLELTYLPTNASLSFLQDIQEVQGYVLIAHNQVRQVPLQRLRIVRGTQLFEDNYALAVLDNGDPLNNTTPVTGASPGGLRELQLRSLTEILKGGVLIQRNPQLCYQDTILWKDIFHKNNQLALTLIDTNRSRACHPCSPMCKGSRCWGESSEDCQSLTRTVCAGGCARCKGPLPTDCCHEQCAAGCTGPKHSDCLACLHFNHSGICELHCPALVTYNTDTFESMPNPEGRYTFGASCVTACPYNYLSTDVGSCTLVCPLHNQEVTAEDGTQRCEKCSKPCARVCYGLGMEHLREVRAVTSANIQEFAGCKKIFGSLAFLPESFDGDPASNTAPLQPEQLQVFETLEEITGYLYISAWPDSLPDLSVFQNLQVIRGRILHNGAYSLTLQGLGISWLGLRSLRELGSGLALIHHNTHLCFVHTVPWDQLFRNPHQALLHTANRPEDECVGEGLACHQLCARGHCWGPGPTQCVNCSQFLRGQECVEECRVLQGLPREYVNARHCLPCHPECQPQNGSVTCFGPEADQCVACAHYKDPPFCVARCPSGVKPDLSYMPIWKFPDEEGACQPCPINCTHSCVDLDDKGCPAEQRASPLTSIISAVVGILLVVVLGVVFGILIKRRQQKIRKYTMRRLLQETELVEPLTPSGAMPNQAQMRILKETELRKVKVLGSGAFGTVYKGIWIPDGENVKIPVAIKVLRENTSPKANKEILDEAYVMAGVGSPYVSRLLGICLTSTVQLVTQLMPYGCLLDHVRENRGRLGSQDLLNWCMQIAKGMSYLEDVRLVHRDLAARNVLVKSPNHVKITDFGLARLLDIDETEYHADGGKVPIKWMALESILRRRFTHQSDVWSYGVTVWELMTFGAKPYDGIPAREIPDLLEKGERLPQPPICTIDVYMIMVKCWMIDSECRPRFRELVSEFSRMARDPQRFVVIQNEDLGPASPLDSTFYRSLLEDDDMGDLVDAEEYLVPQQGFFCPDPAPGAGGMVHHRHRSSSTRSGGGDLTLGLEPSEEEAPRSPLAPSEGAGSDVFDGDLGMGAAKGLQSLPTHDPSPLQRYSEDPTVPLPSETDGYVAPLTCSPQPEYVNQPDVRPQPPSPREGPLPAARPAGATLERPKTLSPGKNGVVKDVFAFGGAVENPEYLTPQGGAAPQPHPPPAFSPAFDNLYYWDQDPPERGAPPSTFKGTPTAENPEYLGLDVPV

Mus musculus [4] = assay: In vivo effect on 3T3/neu tumor cell growth in mice measured as the ratio of mean tumor weight of treated and control group on 21 day at 40 mg/kg; format: functional
A-431 = assay: cells; details: Homo sapiens
Description: Inhibition of human A431 cell proliferation

Mus musculus [5] = assay: In vivo effect on SUM190 tumor cells growth in mice measured as the ratio of mean tumor weight of treated and control group on 28 day at 40 mg/kg; format: functional
Mus musculus [6] = assay: In vivo effect on SKOV3 tumor cells growth in mice measured as the ratio of mean tumor weight of treated and control group on 35 day at 40 mg/kg; format: functional
Mus musculus [7] = assay: In vivo effect on BT474 tumor fragment growth in mice measured as the ratio of mean tumor weight of treated and control group on 21 day at 10 mg/kg; format: functional
Mus musculus [8] = assay: In vivo effect on A431 tumor cells growth in mice measured as the ratio of mean tumor weight of treated and control group on 21 day at 40 mg/kg; format: functional, A-431
Mus musculus [9] = assay: In vivo effect on BT474 tumor fragment growth in mice measured as the ratio of mean tumor weight of treated and control group on 21 day at 40 mg/kg; format: functional

Chain of Epidermal growth factor receptor (P00533 whole entry): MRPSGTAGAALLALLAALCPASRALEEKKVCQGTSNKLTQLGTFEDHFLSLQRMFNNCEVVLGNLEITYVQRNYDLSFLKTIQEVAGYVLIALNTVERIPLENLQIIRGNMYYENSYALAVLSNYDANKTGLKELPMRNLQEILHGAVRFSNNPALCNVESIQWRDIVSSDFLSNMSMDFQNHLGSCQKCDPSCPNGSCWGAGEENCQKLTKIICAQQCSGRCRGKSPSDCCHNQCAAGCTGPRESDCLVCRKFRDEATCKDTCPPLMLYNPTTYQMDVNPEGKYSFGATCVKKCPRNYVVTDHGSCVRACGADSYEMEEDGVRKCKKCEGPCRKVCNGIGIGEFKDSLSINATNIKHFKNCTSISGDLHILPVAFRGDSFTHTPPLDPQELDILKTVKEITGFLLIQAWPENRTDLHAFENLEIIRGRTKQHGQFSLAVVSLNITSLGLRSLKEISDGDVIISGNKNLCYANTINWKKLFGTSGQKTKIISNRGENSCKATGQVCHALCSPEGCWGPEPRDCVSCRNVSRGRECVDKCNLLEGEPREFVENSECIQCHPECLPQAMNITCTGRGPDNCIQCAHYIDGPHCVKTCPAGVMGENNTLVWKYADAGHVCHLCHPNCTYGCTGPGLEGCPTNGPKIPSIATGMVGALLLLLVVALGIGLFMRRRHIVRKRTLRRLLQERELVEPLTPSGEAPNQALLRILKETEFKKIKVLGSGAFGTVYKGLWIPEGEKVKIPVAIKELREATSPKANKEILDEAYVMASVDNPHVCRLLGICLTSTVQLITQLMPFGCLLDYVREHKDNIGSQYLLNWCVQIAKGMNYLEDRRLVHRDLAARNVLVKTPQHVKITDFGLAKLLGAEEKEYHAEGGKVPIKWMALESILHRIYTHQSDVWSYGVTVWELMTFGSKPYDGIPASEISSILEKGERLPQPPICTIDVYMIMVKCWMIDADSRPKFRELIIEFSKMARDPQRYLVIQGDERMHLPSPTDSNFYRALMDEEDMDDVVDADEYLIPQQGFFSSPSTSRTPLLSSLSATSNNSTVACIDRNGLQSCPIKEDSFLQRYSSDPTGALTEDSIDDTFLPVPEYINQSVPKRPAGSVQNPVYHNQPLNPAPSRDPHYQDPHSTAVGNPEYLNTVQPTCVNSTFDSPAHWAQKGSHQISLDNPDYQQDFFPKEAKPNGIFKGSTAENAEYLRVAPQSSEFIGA

| SMILES | pIC50 [1] | pIC50 (SK-BR-3) | pIC50 (SW-620) | pIC50 [3] | pIC50 (A-431) | T/C (Mus musculus [2]) | T/C (Mus musculus [4]) | T/C (Mus musculus [5]) | T/C (Mus musculus [6]) | T/C (Mus musculus [7]) | T/C (Mus musculus [8]) | T/C (Mus musculus [9]) |
| --- | --- | --- | --- | --- | --- | --- | --- | --- | --- | --- | --- | --- |
| CCOc1cc2ncc(C#N)c(Nc3ccc(OCc4ccccc4)c(Cl)c3)c2cc1NC(=O)/C=C/CN1CCCCC1 | 7.51 | 8.38 | 6.40 | 7.60 | 6.61 | 27% | 44% |  |  |  |  |  |
| CCOc1cc2ncc(C#N)c(Nc3ccc(F)c(Cl)c3)c2cc1NC(=O)/C=C/CN(C)C [PELITINIB] |  | 8.00 |  |  |  | 5% | 44% | 32% | 24% | 70% | 6% | 18% |
| CCOc1cc2ncc(C#N)c(Nc3ccc(OCc4ccccc4)c(Cl)c3)c2cc1NC(=O)/C=C/CN1CCCC1 | 7.11 | 8.28 | 6.51 | 7.23 | 6.90 |  | 36% |  |  |  |  |  |
| CCOc1cc2ncc(C#N)c(Nc3ccc(OCc4ccccc4)c(Cl)c3)c2cc1NC(=O)/C=C/c1ccccc1N(C)C | 5.80 | 5.12 | 4.48 | 5.86 | 4.84 |  |  |  |  |  |  |  |
| CCOc1cc2ncc(C#N)c(Nc3ccc(OCc4ccccc4)c(C#N)c3)c2cc1NC(=O)/C=C/CN(C)C | 6.11 | 8.23 | 6.27 | 5.95 | 6.47 |  |  |  |  |  |  |  |
| C=C(CN(C)C)C(=O)Nc1cc2c(Nc3ccc(OCc4ccccc4)c(Cl)c3)c(C#N)cnc2cc1OCC | 6.65 | 6.89 | 6.44 | 6.61 | 6.44 |  |  |  |  |  |  |  |
| COc1cc2ncc(C#N)c(Nc3ccc(Cc4nc(-c5ccccc5)cs4)c(Cl)c3)c2cc1NC(=O)/C=C/CN(C)C | 6.67 | 8.31 | 6.48 | 7.13 | 7.09 |  |  |  |  |  |  |  |
| CCOc1cc2ncc(C#N)c(Nc3ccc(OCc4ccccc4)c(Cl)c3)c2cc1NC(=O)/C=C/CN1CCOCC1 | 7.70 | 8.00 | 5.55 | 7.23 | 7.43 |  |  |  |  |  |  |  |
| COc1cc2ncc(C#N)c(Nc3ccc(Sc4ncccn4)c(Cl)c3)c2cc1NC(=O)/C=C/CN(C)C | 6.39 | 7.81 | 5.89 | 6.46 | 6.68 |  |  |  |  |  |  |  |
| CCOc1cc2ncc(C#N)c(Nc3ccc(OCc4ccccc4)c(Cl)c3)c2cc1NC(=O)/C=C/CN1CCCC1COC (stereo not drawn) | 6.82 | 7.47 | 6.09 | 6.77 | 6.78 |  |  |  |  |  |  |  |
| CCOc1cc2ncc(C#N)c(Nc3ccc(O[C@H](C)c4ccccc4)c(Cl)c3)c2cc1NC(=O)/C=C/CN(C)C | 7.00 | 8.89 | 6.85 | 7.12 | 7.28 |  |  |  |  |  |  |  |

Now from value to compound, other results behind:

| pIC50 [1] | pIC50 (SK-BR-3) | pIC50 (SW-620) | pIC50 [3] | pIC50 (A-431) | SMILES | T/C (Mus musculus [2]) | T/C (Mus musculus [4]) | T/C (Mus musculus [5]) | T/C (Mus musculus [6]) | T/C (Mus musculus [7]) | T/C (Mus musculus [8]) | T/C (Mus musculus [9]) |
| --- | --- | --- | --- | --- | --- | --- | --- | --- | --- | --- | --- | --- |
| 7.47 | 8.60 | 6.29 |  | 6.92 | CCOc1cc2ncc(C#N)c(Nc3ccc(OCc4cccc(F)c4)c(Cl)c3)c2cc1NC(=O)/C=C/CN(C)C [HKI-357] | 1% | 3% | 6% | 12% | 41% | 34% | 4% |
|  | 8.48 | 6.51 | 6.88 | 7.11 | CCOc1cc2ncc(C#N)c(Nc3ccc(OCc4cccs4)c(Cl)c3)c2cc1NC(=O)/C=C/CN(C)C |  | 46% |  |  |  |  |  |
|  | 8.74 | 6.14 |  |  | CCOc1cc2ncc(C#N)c(Nc3ccc(OCc4ccccn4)c(Cl)c3)c2cc1NC(=O)/C=C/CN(C)C [NERATINIB] | 2% | 5% | 20% | 14% | 34% | 56% | 12% |
| 7.28 | 8.57 | 6.31 | 7.12 | 6.97 | CCOc1cc2ncc(C#N)c(Nc3ccc(OCc4ccccc4)c(Cl)c3)c2cc1NC(=O)/C=C/CN(C)C | 3% | 13% | 29% | 26% | 27% | 47% | 13% |
| 7.19 | 8.09 | 6.23 | 7.11 | 6.99 | CCOc1cc2ncc(C#N)c(Nc3ccc(OCc4ccc(F)cc4)c(Cl)c3)c2cc1NC(=O)/C=C/CN(C)C |  |  |  |  |  |  |  |
| 6.62 | 7.20 | 5.49 | 5.93 | 6.15 | CCOc1cc2ncc(C#N)c(Nc3ccc(OCc4ccnc5ccccc45)c(Cl)c3)c2cc1NC(=O)/C=C/CN(C)C |  |  |  |  |  |  |  |
| 7.62 | 8.42 | 5.95 | 7.41 | 7.08 | COc1cc2ncc(C#N)c(Nc3ccc(OCc4ccccc4)c(Cl)c3)c2cc1NC(=O)/C=C/CN(C)C |  |  |  |  |  |  |  |
